Tests used:
[1] = for molar entropy: Small (less than 1 g) adiabatic calorimetry; for vapor or sublimation pressure: Transpiration method
[2] = Molar enthalpy of transition or fusion; settings: Crystal; Adiabatic calorimetry

CC(C)(C)c1ccc(Oc2ccccc2)cc1 [4-tert-butylphenyl phenyl ether]
molar entropy [J/K/mol], [1], 101.33 kPa
Settings | Crystal | Liquid
5 K | 0.2278 | –
10 K | 1.746 | –
15 K | 5.404 | –
20 K | 10.73 | –
25 K | 17.29 | –
30 K | 24.28 | –
35 K | 31.51 | –
40 K | 38.91 | –
45 K | 46.23 | –
50 K | 53.46 | –
60 K | 67.76 | –
70 K | 81.81 | –
80 K | 95.45 | –
90 K | 108.59 | –
100 K | 121.31 | –
110 K | 133.7 | –
120 K | 145.84 | –
130 K | 157.73 | –
140 K | 169.45 | –
150 K | 180.92 | –
160 K | 192.23 | –
170 K | 203.29 | –
180 K | 214.26 | –
190 K | 225.07 | –
200 K | 235.72 | –
210 K | 246.36 | –
220 K | 256.83 | –
230 K | 267.23 | –
240 K | 277.54 | –
250 K | 287.85 | –
260 K | 298.16 | –
270 K | 308.47 | –
280 K | 318.69 | –
290 K | 328.92 | –
298.15 K | 337.23 | –
300 K | 339.15 | –
310 K | 349.29 | –
320 K | 359.35 | –
327.84 K | 367.17 | 434.26
330 K | – | 436.76
340 K | – | 448.48
350 K | – | 460.04
360 K | – | 471.51
370 K | – | 482.82

Settings | mass density [kg/m3]
[1], 298.15 K, 101.33 kPa, Crystal, Pycnometric method | 997.5

[1]
Settings | Triple point temperature [K] | vapor or sublimation pressure [kPa]
298.46 K, Crystal | – | 4.8e-05
299.37 K, Crystal | – | 5.3e-05
300.45 K, Crystal | – | 6.1e-05
303.52 K, Crystal | – | 9.5e-05
306.47 K, Crystal | – | 0.000135
310.47 K, Crystal | – | 0.000222
310.5 K, Crystal | – | 0.000229
312.53 K, Crystal | – | 0.000285
314.45 K, Crystal | – | 0.000363
315.5 K, Crystal | – | 0.000405
316.51 K, Crystal | – | 0.000466
317.52 K, Crystal | – | 0.00055
318.5 K, Crystal | – | 0.000621
319.52 K, Crystal | – | 0.000689
320.55 K, Crystal | – | 0.000755
321.53 K, Crystal | – | 0.000855
322.52 K, Crystal | – | 0.00095
323.45 K, Crystal | – | 0.001031
323.55 K, Crystal | – | 0.001042
324.53 K, Crystal | – | 0.001212
Crystal, Adiabatic calorimetry | 327.84 | –

Settings | Molar enthalpy of transition or fusion [kcal/mol]
[2] | 5.255
